# Experimental data taken from US20040242461A1, “Modulators of telomere stability” (priority 2003, published 2004).
# “Also recorded” adds a separate entry of the source.
# Key:
# [1] = system: αMHC-TRF2 mice and non-transgenic littermates; test: Doxorubicin cardiomyopathy in αMHC-TRF2 mice and non-transgenic littermates; conditions: 15 mg/kg intraperitoneally
# Protocol: Cardiac-specific transgenic mice were created by subcloning the TRF2 and dnTRF2 cDNAs behind the 5.5 kb mouse αMHC promoter (Subramaniam et al., 1991). The resultant plasmids were injected into the pronuclei of fertilized FVB/N oocytes, and tail DNA was used to screen for inheritance of the transgenes. Doppler and M-mode echocardiography were performed as described (Oh et al., 2003; and Minamino et al., 2002).
# To test for cardiac protection, 10-12 week-old αLMHC-TRF2 mice (n=14) and non-transgenic littermates (n=14) were injected intraperitoneally with 15 mg/kg doxorubicin.
# TRF2 [2] = test: Western blot of TRF2 protein levels in cultured cardiomyocytes; assay type: cell-based, rat
# Text: Ventricular myocytes from 2 day-old Sprague-Dawley rats were purified and cultured (Oh, H. et al., 2001; Akli, S. et al., 1999); by this age, ventricular myocytes become refractory to serum-induced Gl exit, after initial serum-starvation in vitro (Akli, S. et al., 1999). Plasmids for human TRF1, TRF2, and the corresponding dominant-negative truncations (TRF1DM, TRF2DBDM) were provided by Dr. Titia de Lange (Rockefeller University) (Karlseder, J. et al., 1999). Adenoviruses coexpressing enhanced green fluorescent protein (eGFP) were generated using pAdTrack-cytomegalovirus (CMV) and pShuttle-CMV (provided by Dr. Bert Vogelstein, Johns Hopkins Oncology Center) (Oh, H. et al., 2001; He, T. C., 1998). Myocytes were infected using a multiplicity of infection of 20. To visualize TRF1/2 after gene transfer, myocytes were fixed in 70% ethanol, then incubated sequentially with tetramethyl rhodamine isothiocyanate-conjugated MF-20 antibody to sarcomeric myosin heavy chains to confirm cell type (University of Iowa Hybridoma Bank), rabbit antibodies to TRF1 and TRF2 (#581420 and 581425; 1:500, Calbiochem) and fluorescein isothiocyanate (FITC)-conjugated goat antibody to rabbit IgG (1:1000, Sigma). Nuclei were stained with 4′,6-diamidino-2-phenylindole (DAPI). Images were captured using a Zeiss Axioplan 2 epifluorescence microscope.
# Proteins were resolved by electrophoresis in 10% SDS-polyacrylamide gels and transferred to membranes by electroblotting. Antibodies were: human and mouse TRF2 (Calbiochem), human and mouse TRF1 (Calbiochem), phospho-Chk2 (Thr68; Cell Signaling), sarcomeric a-actin and myc (Sigmna), FLAG epitope (M2, Kodak), GFP (Clontech), Chk2 (Santa Cruz), poly (ADP-ribose) polymerase (PARP, Oncogene). To detect exogenous TRF2 in virus infected cardiomyocytes, goat and rabbit antibodies to TRF2 were used (C-16, H-300, Santa Cruz); endogenous rat TRF2 was detected using rabbit antibody to TRF2 (Alpha Diagnostic International). […]
# [3] = system: poly (ADP-ribose) polymerase (PARP); test: PARP cleavage / total PARP by Western blot in cultured cardiomyocytes; assay type: cell-based, rat
# Text: (§1) Proteins were resolved by electrophoresis in 10% SDS-polyacrylamide gels and transferred to membranes by electroblotting. Antibodies were: human and mouse TRF2 (Calbiochem), human and mouse TRF1 (Calbiochem), phospho-Chk2 (Thr68; Cell Signaling), sarcomeric a-actin and myc (Sigmna), FLAG epitope (M2, Kodak), GFP (Clontech), Chk2 (Santa Cruz), poly (ADP-ribose) polymerase (PARP, Oncogene). To detect exogenous TRF2 in virus infected cardiomyocytes, goat and rabbit antibodies to TRF2 were used (C-16, H-300, Santa Cruz); endogenous rat TRF2 was detected using rabbit antibody to TRF2 (Alpha Diagnostic International). After blocking with 5% non-fat milk plus 0.1% Tween-20, blots were incubated with primary antibodies (1:500), horseradish peroxidase-conjugated secondary antibodies (1:3000; Amersham Pharmacia Biotech), and enhanced chemiluminescence reagents (Amersham Pharmacia Biotech).
# Cells were lysed in 20 mM HEPES, pH 7.4, 2 mM EGTA, 50 mM glycerophosphate, 1% Triton X-100, 10% glycerol, 1 mM dithiothreitol, 2 μg/ml leupeptin, 5 μg/ml aprotinin, 1 mM phenylmethylsulfonyl fluoride, 1 mM Na3VO4. Lysates were resolved by SDS-polyacrylamide gel electrophoresis and transferred to optitran (Schleicher & Schuell, Keene, N.H.) membranes for Western blotting. […]
# cardiomyocytes = test: Apoptosis as hypodiploid DNA by two-color flow cytometry in cultured cardiomyocytes; assay type: cell-based, rat
# Text: Myocytes were infected using a multiplicity of infection of 20. […] Nuclei were stained with 4′,6-diamidino-2-phenylindole (DAPI). Images were captured using a Zeiss Axioplan 2 epifluorescence microscope.
# Ventricular myocytes from 1 to 2 day-old Sprague-Dawley rats were enzymatically dissociated, then subjected to Percoll gradient centrifugation and preplating to enrich for cardiomyocytes. After overnight culture in medium with 10% horse serum, cells were infected at a multiplicity of infection of 10, then cultured in serum-free medium for 24 to 48 hr (Oh et al., 2003). Where indicated, C2-ceramide (N-acetyl-D-sphingosine; ICN, Costa Mesa, Calif.), 5 mg/ml in dimethylsulfoxide (DMSO), was added at a final concentration of 20-50 μg/ml.
# TRF2 [4] = test: Endogenous TRF2 expression in NIH 3T3 cells after antisense oligonucleotide; assay type: cell-based, mouse; conditions: NIH 3T3 cells (not shown)
# telomere length [5] = test: Telomere length by Southern blot after antisense transfection of mouse cardiomyocytes; assay type: cell-based; conditions: reduction of endogenous TRF2
# Text: (§2) The sequences used were: antisense TRF2 (asTRF2), 5′-[…]-3′ (SEQ ID NO:21); sense TRF2 (sTRF2), 5′-[…]-3′ (SEQ ID NO:22), antisense GFP (Sano, M. et al., 2002), 5′-[…]-3′ (SEQ ID NO:23). Oligonucleotides were transfected into 1-2 day-old C57BI/6 mouse cardiomyocytes, cultured as above, using Oligofectamine (Invitrogen).
# (§3) DNA was digested with Rsa I, resolved by electrophoresis in 0.5% agarose, transferred to Hybond-N^+ membranes (Amersham Pharmacia Biotech), and hybridized using a ^32P-labeled (TTAGGG)4 telomeric probe (Oh, H. et al., 2001; Counter, C. M., 1992). Mean telomere length was ascertained by Phosphor-Imager scanning (Molecular Dynamics).
# [6] = system: C57BI/6 mouse cardiomyocytes; test: Apoptosis by flow cytometry after antisense transfection of mouse cardiomyocytes; assay type: cell-based; conditions: reduction of endogenous TRF2
# Text: as §2
# Hypodiploid DNA was detected by two-color flow cytometry using propidium iodide for DNA content and FITC-conjugated MF20 (Oh, H. et al., 2001; Akli, S. et al., 1999) or FITC-conjugated antibody to sarcomeric myosin heavy chains to confirm myocyte identity, sampling>5000 myocytes for each histogram.
# [7] = system: poly (ADP-ribose) polymerase (PARP); test: PARP cleavage by Western blot after antisense transfection of mouse cardiomyocytes; assay type: cell-based; conditions: reduction of endogenous TRF2
# Text: as §2, §1
# HGK = molecular target: T1, HGK (Homo sapiens, UniProt O95819); test: HGK immune complex kinase assay (recombinant FLAG-HGK in cardiomyocytes); assay type: cell-based; conditions: for HGK activity after agonist: 50 μg/ml C2-ceramide, 200 μM H2O2
# T1 construct: expressed in transfected cells
# T1 sequence (O95819 whole entry): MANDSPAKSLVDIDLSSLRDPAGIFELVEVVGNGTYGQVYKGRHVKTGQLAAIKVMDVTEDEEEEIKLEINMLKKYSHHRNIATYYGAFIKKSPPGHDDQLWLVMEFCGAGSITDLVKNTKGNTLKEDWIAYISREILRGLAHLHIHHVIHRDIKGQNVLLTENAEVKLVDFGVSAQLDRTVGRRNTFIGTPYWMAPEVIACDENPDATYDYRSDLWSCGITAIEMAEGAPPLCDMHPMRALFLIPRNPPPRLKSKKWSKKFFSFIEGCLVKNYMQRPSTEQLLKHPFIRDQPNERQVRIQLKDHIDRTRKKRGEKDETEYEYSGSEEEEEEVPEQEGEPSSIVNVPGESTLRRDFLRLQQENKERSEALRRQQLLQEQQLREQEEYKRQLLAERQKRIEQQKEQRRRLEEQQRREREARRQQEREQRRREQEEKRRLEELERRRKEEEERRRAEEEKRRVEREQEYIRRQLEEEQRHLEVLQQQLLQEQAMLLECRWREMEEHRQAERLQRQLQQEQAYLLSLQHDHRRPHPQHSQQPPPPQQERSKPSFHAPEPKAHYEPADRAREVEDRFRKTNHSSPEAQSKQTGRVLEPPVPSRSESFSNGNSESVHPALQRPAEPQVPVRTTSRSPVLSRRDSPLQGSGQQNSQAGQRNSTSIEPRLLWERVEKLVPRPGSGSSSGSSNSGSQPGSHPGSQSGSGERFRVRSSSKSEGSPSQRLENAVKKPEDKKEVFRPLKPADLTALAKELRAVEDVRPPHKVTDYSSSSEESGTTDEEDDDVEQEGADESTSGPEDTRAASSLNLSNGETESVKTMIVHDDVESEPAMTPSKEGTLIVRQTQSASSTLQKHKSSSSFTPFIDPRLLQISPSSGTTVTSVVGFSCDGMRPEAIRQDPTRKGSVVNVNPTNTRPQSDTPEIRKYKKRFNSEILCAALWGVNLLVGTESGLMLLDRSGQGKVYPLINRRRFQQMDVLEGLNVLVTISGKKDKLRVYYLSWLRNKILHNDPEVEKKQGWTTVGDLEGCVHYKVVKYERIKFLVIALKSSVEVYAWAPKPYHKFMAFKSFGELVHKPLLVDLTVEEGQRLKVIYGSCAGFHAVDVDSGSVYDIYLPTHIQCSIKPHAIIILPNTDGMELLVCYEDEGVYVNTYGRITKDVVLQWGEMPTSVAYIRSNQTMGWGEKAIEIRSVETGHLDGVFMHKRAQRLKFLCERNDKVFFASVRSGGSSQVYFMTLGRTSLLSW
# Text: HGK was alternatively spliced, with the presence or absence of an SH3-like domain being one potentially important difference. […] Dominant-negative, FLAG-tagged JNK1 (JNK1 APF). Viruses were engineered using pAd-Easy-1 and pShuttleCMV. Adenoviruses encoding wild-type and dominant-negative TRF2 were constructed analogously (Oh et al., 2003), using cDNAs.
# For HGK immune complex kinase assays, recombinant HGK was precipitated using M2 antibody and protein G-Sepharose, in the lysis buffer above. Precipitates were washed twice in lysis buffer, twice with 500 mM LiCl, 100 mM Tris-HCl, pH 7.6, 0.1% Triton X-100, and twice with kinase buffer (20 mM MOPS, pH 7.6, 2 mM EGTA, 10 mM MgCl2, 1 mM dithiothreitol, 0.1% Triton X-100, 1 mM Na3VO4), then were mixed with 10 μg of myelin basic protein (MBP) (Invitrogen, Carlsbad, Calif.), as substrate, 15 μM ATP, and 10 μCi [γ-^32P]ATP in 30 μl of kinase buffer for 30 min at 30° C. (Yao et al., 1999). Reaction mixtures were resolved by SDS-polyacrylamide gel electrophoresis, then were analysed by autoradiography and Western blotting as above.
# TRF2 [8] = test: Western blot of TRF2 after antisense oligonucleotide transfection of mouse cardiomyocytes; assay type: cell-based; conditions: Oligofectamine transfection
# Text: as §2, §1
# Chk2 = Chk2 immune complex kinase assay after antisense transfection of mouse cardiomyocytes; assay type: cell-based; conditions: reduction of endogenous TRF2
# Protocol: as §2
# To assay Chk2 activity, samples were lysed in 20 mM Tris-HCl (pH 8.0), 0.1% Triton X-100, 10 mM NaF, 1 mM NaVa3VO4, […], 1 mM PMSF, then incubated for 1 hr with antibody to Chk2 and protein A/G-Sepharose (Pharmacia). lmrunoprecipitates were washed and assayed in the presence of 30 μM CHKtide substrate peptide ([…] (SEQ ID NO:24), Upstate Biotechnology, Inc), 40 μM adenosine triphosphate, 15 μCi [γ-^32P]ATP, for 30 min at 30° C. Proteins were resolved by electrophoresis in SDS-polyacrylamide gels and visualized by autoradiography. Aliquots of Chk2 immunoprecipitates were also used for Western blotting, allowing activity and content to be compared in the same samples.
# telomere length [9] = test: Telomere length by Southern blot with telomeric probe in cultured cardiomyocytes; assay type: cell-based, rat; conditions: gene transfer or treatment
# Text: as §3
# [10] = cultured cardiomyocytes, gene transfer or treatment
compound,measurement,setting,value
COc1cccc2c1C(=O)c1c(O)c3c(c(O)c1C2=O)C[C@@](O)(C(=O)CO)C[C@@H]3O[C@H]1C[C@H](N)[C@H](O)[C@H](C)O1 [doxorubicin],survival as of day 16,[1]; littermate controls,7%
same,mice that had died by 7 days after injection,"[1]; non-transgenic mice, n=14",63%
same,survival as of day 16,[1]; αMHC-TRF2 mice,36%
same,deaths by 7 days after injection,"[1]; αMHC-TRF2 mice, n=14",no deaths
same,TRF2 protein expression decreased,"TRF2 [2]; cardiac myocytes, 1 μM doxorubicin, within 8 hr",50%
same,time until loss of PARP (caspase-3 activation) was comparable to the TRF2 loss,"[3]; cardiac myocytes, 1 μM doxorubicin",48 h
same,induction of cardiac myocyte apoptosis (hypodiploid myocytes),cardiomyocytes; doxorubicin administered to myocytes,induced cardiac myocyte apoptosis
"5′-CCTGGGCTGCCGGCTCGAGC-3′ (all phosphorothioate, sugars by position and methylation of C not given here) [antisense TRF2]",endogenous TRF2 expression,TRF2 [4],inhibited endogenous TRF2 expression effectively
same,telomere shortening,telomere length [5],telomere shortening
same,apoptosis,[6],apoptosis
same,PARP cleavage,[7],PARP cleavage
same,induction of HGK activity,"HGK; antisense suppression of endogenous TRF2, antisense GFP as control",more than 50%
same,increase of HGK kinase activity,"HGK; mouse cardiomyocytes, antisense oligo transfection, HGK adenovirus",1.5 fold
same,TRF2 protein level,TRF2 [8],specifically reduced
same,Chk2 activation,Chk2,Chk2 activation
"CCCCCCCCCCCCC/C=C/[C@@H](O)[C@H](CO)NC(C)=O [ceramide, N-acetyl-D-sphingosine]",TRF2 levels,TRF2 [2]; viral delivery or ceramide treatment,reduced TRF2 levels
same,HGK activity after agonist,HGK,activated further; also recorded: potent activator of HGK
same,increase in hypodiploid myocytes,cardiomyocytes; ceramide treatment,20 fold
OO [H2O2],telomere erosion / shortening,telomere length [9],induced
same,time to decrease of endogenous TRF2,"TRF2 [2]; cardiomyocytes, 100 μM H2O2",≤ 2 h
same,PARP cleavage,[3]; [10],induced
same,HGK activity after agonist,HGK,activated
same,apoptosis (hypodiploid DNA),cardiomyocytes; [10],induced
